Laboratory results reported in patent publication US8524902B2, “[1,2,4]triazolo[4,3-f]pteridines useful as inhibitors of protein kinases” (Vertex Pharmaceuticals Incorporated, priority 2006, dated 2013).

target: T1, Plk1 (Homo sapiens, UniProt P53350); assay: Plk1 inhibition assay (radioactive-phosphate incorporation); assay type: biochemical; details: Ki(app) from [γ-33P]ATP incorporation, 25° C.
T1 construct: in the presence of 15 nM Plk1 (A20-K338)
Method: Compounds of the present invention may be evaluated as inhibitors of human PLK kinase using the following assays.
Compounds were screened for their ability to inhibit Plk1 using a radioactive-phosphate incorporation assay. Assays were carried out in a mixture of 25 mM HEPES (pH 7.5), 10 mM MgCl2, and 1 mM DTT. Final substrate concentrations were 50 μM [γ-33P]ATP (136 mCi 33P ATP/mmol ATP, Amersham Pharmacia Biotech/Sigma Chemicals) and 10 μM peptide (SAM68 protein Δ332-443). Assays were carried out at 25° C. in the presence of 15 nM Plk1 (A20-K338). An assay stock buffer solution was prepared containing all of the reagents listed above, with the exception of ATP and the test compound of interest. 30 μL of the stock solution was placed in a 96 well plate followed by addition of 2 μL of DMSO stock containing serial dilutions of the test compound (typically starting from a final concentration of 10 μM with 2-fold serial dilutions) in duplicate (final DMSO concentration 5%). The plate was pre-incubated for 10 minutes at 25° C. and the reaction initiated by addition of 8 μL [γ33P]ATP (final concentration 50 μM).
(§1) The reaction was stopped after 60 minutes by the addition of 100 μL 0.14M phosphoric acid. A multiscreen phosphocellulose filter 96-well plate (Millipore, Cat no. MAPHN0B50) was pretreated with 100 μL 0.2M phosphoric acid prior to the addition of 125 μL of the stopped assay mixture. The plate was washed with 4×200 μL 0.2M phosphoric acid. After drying, 100 μL Optiphase ‘SuperMix’ liquid scintillation cocktail (Perkin Elmer) was added to the well prior to scintillation counting (1450 Microbeta Liquid Scintillation Counter, Wallac).
After removing mean background values for all of the data points, Ki(app) data were calculated from non-linear regression analysis of the initial rate data using the Prism software package (GraphPad Prism version 3.0cx for Macintosh, GraphPad Software, San Diego Calif., USA).
Compounds were screened for their ability to inhibit Plk1 using a radioactive-phosphate incorporation assay. Assays were carried out in a mixture of 25 mM HEPES (pH 7.5), 10 mM MgCl2, 0.1% BSA, and 2 mM DTT. Final substrate concentrations were 150 μM (350 μM for determining values of <1 nM) [γ-33P]ATP (115 mCi 33P ATP/mmol ATP, Amersham Pharmacia Biotech/Sigma Chemicals) and 300 μM (450 μM for determining values of <1 nM) peptide (KKKISDELMDATFADQEAK) SEQ. ID NO. 1. Assays were carried out at 25° C. in the presence of 4 nM (1 nM for determining values of <1 nM) Plk1. An assay stock buffer solution was prepared containing all of the reagents listed above, with the exception of ATP and the test compound of interest. 30 μL of the stock solution was placed in a 96 well plate followed by addition of 2 μL of DMSO stock containing serial dilutions of the test compound (typically starting from a final concentration of 10 μM with 2-fold serial dilutions) in duplicate (final DMSO concentration 5%). The plate was pre-incubated for 10 minutes at 25° C. and the reaction initiated by addition of 8 μl [γ-33P]ATP (final concentration 150 μM (350 μM for determining values of <1 nM))).
as §1, with “90” for “60”, “minutes (240 minutes for determining values of <1 nM)” for “minutes”

T1 sequence (P53350 20-338): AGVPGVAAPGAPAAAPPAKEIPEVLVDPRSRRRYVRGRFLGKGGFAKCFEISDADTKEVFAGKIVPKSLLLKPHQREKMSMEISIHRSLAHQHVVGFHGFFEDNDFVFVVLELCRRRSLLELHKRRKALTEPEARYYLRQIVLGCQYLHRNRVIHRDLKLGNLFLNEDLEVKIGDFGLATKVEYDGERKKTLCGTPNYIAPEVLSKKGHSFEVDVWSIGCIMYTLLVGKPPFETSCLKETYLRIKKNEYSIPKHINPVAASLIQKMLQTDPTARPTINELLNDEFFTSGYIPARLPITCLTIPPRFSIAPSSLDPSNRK

SMILES	Ki [nM]
CCNC(=O)c1ccc(Nc2ncc3c(n2)N(C2CCCC2)[C@H](CC)c2nncn2-3)c(F)c1 [Compound I-19, (R)-4-(5-cyclopentyl-4-ethyl-4,5-dihydro-[1,2,4]triazolo[4,3-f]pteridin-7-ylamino)-N-ethyl-3-fluorobenzamide]	< 10
CC[C@@H]1c2nncn2-c2cnc(Nc3ccc(C(=O)NC4CC4)cc3)nc2N1C1CCCC1 [Compound I-11, (R)-4-(5-cyclopentyl-4-ethyl-4,5-dihydro-[1,2,4]triazolo[4,3-f]pteridin-7-ylamino)-N-cyclopropylbenzamide]	< 10
CC[C@@H]1c2nncn2-c2cnc(Nc3ccc(C(=O)NC4CCCC4)cc3OC)nc2N1C1CCCC1 [Compound I-10, (R)—N-cyclopentyl-4-(5-cyclopentyl-4-ethyl-4,5-dihydro-[1,2,4]triazolo[4,3-f]pteridin-7-ylamino)-3-methoxybenzamide]	< 10
CC[C@@H]1c2nncn2-c2cnc(Nc3ccc(C(=O)NC)cc3Cl)nc2N1C1CCCC1 [Compound I-4, 4-((R)-5-cyclopentyl-4-ethyl-4,5-dihydro-[1,2,4]triazolo[4,3]pteridin-7-ylamino)-3-chloro-N-methylbenzamide]	< 10
CC[C@@H]1c2nncn2-c2cnc(Nc3ccc(C(F)(F)F)cc3F)nc2N1C1CCCC1 [Compound I-20, (R)-5-cyclopentyl-4-ethyl-N-(2-fluoro-4-(trifluoromethyl)phenyl)-4,5-dihydro-[1,2,4]triazolo[4,3-f]pteridin-7-amine]	< 10
CC[C@@H]1c2nncn2-c2cnc(Nc3ccc(-n4cccn4)cc3)nc2N1C1CCCC1 [Compound I-39, (R)—N-(4-(1H-pyrazol-1-yl)phenyl)-5-cyclopentyl-4-ethyl-4,5-dihydro-[1,2,4]triazolo[4,3-f]pteridin-7-amine]	< 10
CC[C@@H]1c2nncn2-c2cnc(Nc3ccc(C(=O)N[C@@H]4CCOC4)cc3OC)nc2N1C1CCCC1 [Compound I-9, 4-((R)-5-cyclopentyl-4-ethyl-4,5-dihydro-[1,2,4]triazolo[4,3-f]pteridin-7-ylamino)-3-methoxy-N—((R)-tetrahydrofuran-3-yl)benzamide]	< 10
CC[C@@H]1c2nncn2-c2cnc(Nc3ccc(C(=O)NC)cc3C)nc2N1C1CCCC1 [Compound I-6, 4-((R)-5-cyclopentyl-4-ethyl-4,5-dihydro-[1,2,4]triazolo[4,3]pteridin-7-ylamino)-N,3-dimethylbenzamide]	< 10
CC[C@@H]1c2nncn2-c2cnc(Nc3ccc(C(=O)N4CC[C@H](F)C4)cc3OC)nc2N1C1CCCC1 [Compound I-12, (4-((R)-5-cyclopentyl-4-ethyl-4,5-dihydro-[1,2,4]triazolo[4,3-f]pteridin-7-ylamino)-3-methoxyphenyl)((S)-3-fluoropyrrolidin-1-yl)methanone]	< 10
CC[C@@H]1c2nccn2-c2cnc(Nc3ccc(C(=O)NC)cc3OC)nc2N1C1CCCC1 [Compound I-7, 4-((R)-5-cyclopentyl-6-ethyl-5,6-dihydroimidazo[1,2)pteridin-3-ylamino)-3-methoxy-N-methylbenzamide]	< 10
CC[C@@H]1c2nncn2-c2cnc(Nc3ccc(C(F)(F)F)nc3)nc2N1C1CCCC1 [Compound I-40, (R)-5-cyclopentyl-4-ethyl-N-(6-(trifluoromethyl)pyridin-3-yl)-4,5-dihydro-[1,2,4]triazolo[4,3-f]pteridin-7-amine]	10 to 100
CC[C@@H]1c2nncn2-c2cnc(Nc3ccc(C(=O)NC4CC4)cc3F)nc2N1C1CCCC1 [Compound I-14, (R)-4-(5-cyclopentyl-4-ethyl-4,5-dihydro-[1,2,4]triazolo[4,3-f]pteridin-7-ylamino)-N-cyclopropyl-3-fluorobenzamide]	< 10
CC[C@@H]1c2nncn2-c2cnc(Nc3ccc(N4CCN(C)CC4)nc3)nc2N1C1CCCC1 [Compound I-41, (R)-5-cyclopentyl-4-ethyl-N-(6-(4-methylpiperazin-1-yl)pyridin-3-yl)-4,5-dihydro-[1,2,4]triazolo[4,3-f]pteridin-7-amine]	< 10
